In PMC12392461, “Beyond Estrogenicity: A Comparative Assessment of Bisphenol A and Its Alternatives in In Vitro Assays Questions Safety of Replacements” (Environmental Science & Technology, 2025):
Where two headings read alike, the source gives them in different places.

Tests used:
[1] = tested on: Mitochondrial Membrane Potential; experiment: cells; settings: for Specificity ratio (SRbaseline) SRMMP: against baseline cytotoxicity; for Specificity ratio (SRcytotoxicity) SRMMP: against experimental cytotoxicity; for Relative effect potency REPMMP: relative to BPA; for EC10, linear: MMP bioassay, dosing range all, linear model; for SR (MMP inhibition): specificity ratio
Excerpt: All bioassay media components and the ERα-UAS-bla GripTite and PPARγ-UAS-bla cells were obtained from Thermo Fisher Scientific (Waltham, MA, USA). AREc32 reporter gene cells based on MCF7 were provided by C. Roland Wolf (Cancer Research UK); AhR CALUX cells (H4L7.5c2 derived from H4IIe) were provided by Michael Denison (UC Davis, USA); and SH-SY5Y cells were purchased from Sigma-Aldrich.
(§1) Cell culture conditions and bioassay protocols including response detection are provided in Text S2.1–2.4 and Table S3. − Cell viability was determined from cell confluency using an IncuCyte S3 Live-Cell Analysis System (Sartorius AG, Essen, Germany) before and after exposure, except for SH-SY5Y cells (live–dead staining with Nuclear Green LcS1 and propidium iodide, Abcam, UK). For metabolic activation experiments, cell viability was assessed using the ToxBLAzer DualScreen Kit (Thermo Fisher Scientific) to capture the remaining toxicity in ERα-UAS-bla GripTite after treatment with the aCYP catalyst (details in Text S2.4).
For ARE, the concentration that triggered an induction ratio of 1.5 (ECIR1.5) was used as the benchmark value, as detailed in Text S2.5. IC10 values also served as a threshold for data analysis in all assays; only concentrations below IC10 were considered when deriving EC10 or ECIR1.5. […]
S2: Cell culture and bioassays
S2.1: Cell Culturing Conditions
All suppliers and sources are given in detail in SI-Excel S3. The bioassay media for the different assays were prepared as follows: Assay medium for ER alpha-UAS-bla GripTite (ERα) and […]
2% charcoal-stripped FBS, and 100 U/mL penicillin-streptomycin. MitoOxTox and AhR assay medium was comprised of 90% DMEM with GlutaMAX, supplemented with 10% FBS, and 100 U/mL penicillin-streptomycin. […]
S2.2: Cell Seeding and Incubation. For all bioassays, cell suspensions in the respective assay medium were dispensed into each well of 384-well plates using a MultiFlo Dispenser (Biotek, (now Agilent), Winooski, VT, U.S.). After seeding, the plates were incubated at 37° C and 5% CO₂ for […]. The final cell densities and plate types were as follows: Black poly-D-lysine […]
6500 cells/well, ERα: 5000 cells/well. White 384-well plates with a clear bottom (Product No.
(§2) NYC, U.S.) for AhR: 3250 cells/well. Black Collagen I coated plates were used (Product No.
(§3) S2.3: Chemical Dosing and Assay Analysis Procedures. The dosing procedure and high-throughput assay workflow have been described in detail before. 9 The dosing concentrations […]
Stock solutions were then either

[2] = tested on: SH-SY5Y cells; settings: for IC10, linear transformed / IC10, linear / logIC10: NOI bioassay cytotoxicity, dosing range all; for IC10, linear: linear model; for logIC10: log-logistic model; for Toxic ratio (TR) TRNOI: against baseline cytotoxicity; for IC10, SH-S5Y5, NOI: cytotoxicity, NOI assay cells
Description: as §1, with “S2.4). […]” for “S2.4).”
We measured the cytotoxicity of BPA and its alternatives in HEK293H (PPARγ), HEK293T (ERα), H4IIe (AhR CALUX), MCF7 (ARE/MMP), and differentiated SH-SY5Y cells (Table S6). […]
medium, supplemented with 2% B-27 Supplement and 2 mM GlutaMAX Supplement. SH - SY5Y cells were differentiated with 10 µM all-trans retinoic acid prior to the assay.
S2.2: Cell Seeding and Incubation. For all bioassays, cell suspensions in the respective assay medium were dispensed into each well of 384-well plates using a MultiFlo Dispenser (Biotek, (now Agilent), Winooski, VT, U.S.). After seeding, the plates were incubated at 37° C and 5% […]
as §2, §3
Stock solutions were then either added directly to the respective cell culture medium or evaporated under nitrogen, followed by replenishment with fresh medium. The final solvent content in each well was kept below 1% for methanol, 0% for acetonitrile.
Dosing plates were prepared as 11 -step serial dilutions using a Hamilton Microlab Star robotic system (Hamilton, Bonaduz, Switzerland), and chemicals were dosed in duplicates by transferring 10 μL twice from the dosing plates to the cell plates . After quantifying cell confluency as described in S2. 4., the exposed cells were incubated at 37° C and 5% CO₂ for an additional 24 h. All chemicals were tested in all assays with at least three independent […]
S2.4: Cell Viability Measurement s and bioanalytical protocols . The confluency as a measure of cell viability was determined with an IncuCyte S3 Live -Cell Analysis System (Sartorius AG, Essen, Germany). With this method the confluency of cells in a microscopy image are normalized to control wells without cells and compared before and after 24 hours of exposure.
This method has been described previously 13. Cell viability of SH-SY5Y cells was measured […]
propidium iodide (PI, Abcam, Cambridge, U.K.).14 Nuclear Green LCS1 is a membrane-permeable dye that stains the nuclei of all cells, whereas PI only enters cells with compromised membrane integrity (non-viable cells). After staining, live cells show green nuclei without red fluorescence, while dead cells display both green and red nuclear fluorescence due to PI […]
intercalation. […]

[3] = Acidity constant (pKa) measurement, Sirius T3 UV-metric, and speciation at pH 7.4; settings: for Double negative form (pH = 7.40) / Negative form (pH = 7.40) / Neutral form (pH = 7.40) / αneutral % (fraction of neutral species): from experimental pKa; for αneutral % (fraction of neutral species): pH 7.4; for pKa: pKa (Acid)
Description: Physicochemical properties provide input parameters for the baseline toxicity model. Acidity constants (pK a) and octanol–water partition constants of the neutral species (K ow) were measured with a Sirius T instrument from Pion Inc. (Sussex, UK) (Text S1.2 and Table S1). A detailed description of the pK a and K ow measurements can be found in literature. , […]
S1.2: pKa and log Kow measurements […]
titrator (Pion Inc., Sussex, U.K.). A detailed description of the experimental procedure is available in the literature.1 In brief, each sample was prepared by mixing 5 µL of a 10 mM dimethyl sulfoxide (DMSO) stock solution with 25 µL of a phosphate buffer solution (14.4 mM […]
A reference vial containing 5 µL of DMSO
(Roth, A994-100 ML) and 25 µL of phosphate buffer was analyzed alongside each sample.
The pKa values were determined using the automated UV-metric pKa protocol within the Sirius T3 Control software (version 2.0.0.0.). Each sample was subjected to three consecutive […]
from 2 to 12 by stepwise addition of 0.5 M HCl or 0.5 M potassium hydroxide while recording […]
UV absorbance. […]
To ensure reproducibility, measurements were conducted on at least two

[4] = Arec32, read-out: EC10, MMP (M)
[5] = Arec32, read-out: EC10, linear transformed
[6] = second pKa column, experimental, this study
[7] = phosphate buffer with […] KCl, Sirius T3 titrator, experimental, this study

Row | Compound | EC10 ([1]; Arec32, read-out: EC10, MMP) | EC10 [1, 4] | EC10 ([1]; Arec32, read-out: EC10, linear) | EC10 [1, 5] | EC10 ([1]; Arec32, read-out: logEC10) | Specificity ratio (SRbaseline) SRMMP [1] | Specificity ratio (SRcytotoxicity) SRMMP [1] | Relative effect potency REPMMP [1] | IC10, linear transformed [2] | IC10, linear [2] | logIC10 [2] | Toxic ratio (TR) TRNOI [2] | IC10, SH-S5Y5, NOI [2] | Double negative form (pH = 7.40) [3] | Negative form (pH = 7.40) [3] | Neutral form (pH = 7.40) [3] | αneutral % (fraction of neutral species) [3] | pKa [3, 6] | pKa ([3]; experimental, this study) | EC10, linear [1] | further results
1 | CC(C)c1cc(C(C)(C)c2ccc(O)c(C(C)C)c2)ccc1O [BPG, 2,2-Bis(4-hydroxy-3-isopropylphenyl)propane] | 3.12e-06 M | 3.12e-06 M | 2.65e-06 M | 3.08e-06 M | 3.09e-06 M | 1.70 | 2.79 | 8.97 | 3.61E-05 | no cytotoxicity | -4.44 | 0.08 | 36.1 µM | 4.07e-6% | 0.0363% | 100% | 100% | 11.3 | 10.8 |  | 
2 | CC(C)(c1ccc(O)c(-c2ccccc2)c1)c1ccc(O)c(-c2ccccc2)c1 [BPPH, 2,2-Bis(2-hydroxy-5-biphenylyl)propane] | 1.96e-06 M | 1.96e-06 M |  | 1.94e-06 M | 1.95e-06 M | 2.08 | 3.95 | 14.27 | 2.31E-05 | no cytotoxicity | -4.64 | 0.08 | 23.1 µM | 0.000533% | 0.825% | 99% | 99% | 10.6 | 9.48 | no effect | log(1/EC10) MMP ([1]; input of the ToxPi score, values up to 1.00): 1.00
3 | O=S(=O)(c1ccc(O)cc1)c1ccc(O)cc1 [BPS, 4,4'-Sulfonyldiphenol] | 0.000117 M | 0.000117 M | 7.55e-05 M | 0.000118 M | 0.000117 M |  |  |  |  | 1.85E-04 | -3.71 |  | 195 µM | 9% | 52% | 39% | 39% |  |  |  | pKa (Acid) [3]: 8.16; pKa [3]: 7.28
4 | O=S(=O)(c1ccc(O)cc1)c1ccc(OCc2ccccc2)cc1 [BPS-MPE, 4-[4-(benzyloxy)benzenesulfonyl]phenol] | 5.59e-06 M | 5.59e-06 M | 3.72e-06 M | 5.91e-06 M | 5.62e-06 M | 6.33 | 21.99 | 5.01 |  | no cytotoxicity | no cytotoxicity |  |  |  | 32% | 68% | 68% |  |  |  | SR (MMP inhibition) [1]: 22; pKa [3, 7]: 7.73
5 | Oc1ccc(Sc2ccc(O)cc2)cc1 [BPT, 4,4'-Thiodiphenol] | 1.83e-05 M | 1.83e-05 M |  | 1.82e-05 M | 1.82e-05 M |  |  |  |  | 1.40E-04 | no cytotoxicity |  | 140 µM | 0.0324% | 4.47% | 96% | 96% |  |  | no effect | SR (MMP inhibition) [1]: > 10; pKa ([3]; phosphate buffer with […] KCl, Sirius T3 titrator, second pKa column, experimental, this study): 9.54; pKa [3, 7]: 8.73
6 | Oc1ccc(C2(c3ccc(O)cc3)CCCCC2)cc1 [BPZ, 1,1'-Bis(4-hydroxyphenyl)cyclohexane] | 2.21e-05 M | 2.21e-05 M | 1.31e-05 M | 2.39e-05 M | 2.19e-05 M |  |  |  | 7.89E-05 | 7.12E-05 | -4.10 |  | 78.9 µM | 0.00202% | 1.11% | 99% | 99% | 10.1 | 9.35 |  | 
